pIC50, pKi: −log10 of the molar value.
Key:
EGFR = target: T1, EGFR (Homo sapiens, UniProt P00533); test: Mechanism of action study / Ki determination; assay type: biochemical
T1 construct: residues H672-A1210 of human EGFR, Proqinase; purchased Proqinase
Method: Enzymatic activity was measured by standard methods after dilution of the enzyme-inhibitor complex.

Adenosine, Non-selective = test: NovaScreen assay; assay type: binding
Dopamine, Non-selective = test: NovaScreen assay; assay type: binding
[1] = test system: Glutamate, NMDA Agonist Site; test: NovaScreen assay; assay type: binding
[2] = target: T2, Glutamate, NMDA, Glycine (Stry-insens Site) (Homo sapiens, UniProt Q05586); test: NovaScreen assay; assay type: binding; conditions: read-out: Inhibition, 10 μM XL-647
T2 construct: NovaScreen

Histamine, H3 = target: T3, Histamine, H3 (Homo sapiens, UniProt Q9Y5N1); test: NovaScreen assay; assay type: binding; conditions: read-out: Inhibition, 10 μM XL-647
T3 construct: NovaScreen

Melatonin, Non-selective = test: NovaScreen assay; assay type: binding
Calcium Channel, Type N = target: T4, Calcium Channel, Type N (Homo sapiens, UniProt Q00975); test: NovaScreen assay; assay type: binding; conditions: read-out: Inhibition, 10 μM XL-647
T4 construct: NovaScreen

Leukotriene B4, LTB4 = target: T5, Leukotriene B4, LTB4 (Homo sapiens, UniProt Q15722); test: NovaScreen assay; assay type: binding; conditions: read-out: Inhibition, 10 μM XL-647
T5 construct: NovaScreen

Bradykinin, BK2 = target: T6, Bradykinin, BK2 (Homo sapiens, UniProt P30411); test: NovaScreen assay; assay type: binding; conditions: read-out: Inhibition, 10 μM XL-647
T6 construct: NovaScreen

Neurokinin, NK1 = target: T7, Neurokinin, NK1 (Homo sapiens, UniProt P25103); test: NovaScreen assay; assay type: binding; conditions: read-out: Inhibition, 10 μM XL-647
T7 construct: NovaScreen

wt EGFR (A431) = wt EGFR (A431) (Homo sapiens, UniProt P00533); test: Cell-based EGFR autophosphorylation assay in A431 cells; conditions: read-out: IC50, EGFR phosphorylation
Method: A431 contains overexpressed wt human EGFR.
A431 and MDA-MB-231 cell lines were maintained and propagated as monolayer cultures in DMEM (Mediatech) containing L-glutamine supplemented with 10% heat-inactivated fetal bovine serum (Hyclone), 100 units/mL penicillin G, 100 μg/mL streptomycin (1% penicillin/streptomycin, Mediatech), and 1% nonessential amino acids (Mediatech) at 37° C. in a humidified 5% CO2 incubator.
A431 cells were seeded at 5×10^4 per well in 96-well microtiter plates (3904 Costar, VWR) and incubated in fully supplemented DMEM for 16 h after which growth medium was replaced with serum-free DMEM and the cells were incubated for an additional 24 h. […] After treatment, cell monolayers were washed with cold PBS and immediately lysed with cold lysis buffer (50 mmol/L Tris-HCl (pH 8.0), 150 mmol/L NaCl, 10% glycerol, 1% NP40, 0.1% SDS, 0.5% sodium deoxycholate, 1 mmol/L EDTA, 50 mmol/L NaF, 1 mmol/L sodium pyrophosphate, 1 mmol/L sodium orthovanadate, 2 mmol/L phenylmethylsulfonyl fluoride, 10 μg/mL aprotinin, 5 μg/mL leupeptin, 5 μg/mL pepstatin). […] Horseradish peroxidase activity was determined by reading the plates in a Victor2 plate reader following addition of the ELISA Femto substrate (Pierce).

[3] = test system: A431 human epidermoid carcinoma xenograft; test: A431 xenograft model, tumor growth; assay type: in vivo, mouse; conditions: for ED50: Mus musculus
Method: Female severe combined immunodeficient mice and female athymic nude mice (NCr), 5 to 8 weeks of age and weighing ˜20 to 25 g, were purchased from The Jackson Laboratory and Taconic, respectively. The animals were housed at the Exelixis vivarium facilities according to guidelines outlined by the Exelixis Institutional Animal Care and Use Committee. During all studies, animals were provided food and water ad libitum and housed in a room conditioned at 70° F. to 75° F. and 60% relative humidity.
Before treatment, H1975, A431, or MDA-MB-231 cells were harvested from exponentially growing cultures, detached by brief trypsinization, washed twice in cold HBSS, resuspended in ice-cold HBSS, and implanted either s.c. (H1975, 3×10^6 cells per mouse) or i.d. (A431, 1×10^6 cells per mouse) into the dorsal hind flank or s.c. into the mammary fat pad (MDA-MB-231, 1×10^6 cells per mouse). Palpable tumors were measured by caliper twice weekly until the mean tumor weight was in the range of ˜80 to 120 mg. Tumor weight was determined by measuring perpendicular diameters with a caliper and multiplying the measurements of diameters in two dimensions: tumor […]. Tumor weight (mg) was extrapolated from tumor volume (mm3) by assuming a conversion factor of 1. On the appropriate day after implantation, mice were grouped (10 mice per group) such that the group mean tumor weight was ˜100±15 mg. The mean tumor weight of each animal in the respective control and treatment groups was determined twice weekly during the dosing periods. Tumor xenografts were established in female mice and allowed to reach approximately 100 mg prior to treatment. An example is described in Gendreau S B, Ventura R, Keast P, et al., Inhibition of the T790M Gatekeeper Mutant of the Epidermal Growth Factor Receptor by EXEL-7647, Clin Cancer Res 3713, 13(12) (2007), which is hereby incorporated by reference.
(§1) The response of tumors to treatment was determined by comparing the mean tumor weight of the treatment group with the appropriate control group. Percentage inhibition of tumor growth was determined with the following formula: Percentage inhibition=100×[1−(Xf−Xo)/(Yf−Yo)], where Xf and Yf are the mean tumor weights of the treatment and control groups, respectively, on day f, and Xo and Yo are the mean tumor weights of treatment and control groups respectively, on day zero (staged tumor weights after grouping)

[4] = test system: MDA-MB-231 human tumor xenograft; test: MDA-MB-231 xenograft, tumor growth; assay type: in vivo; conditions: Mus musculus
Method: Before treatment, H1975, A431, or MDA-MB-231 cells were harvested from exponentially growing cultures, detached by brief trypsinization, washed twice in cold HBSS, resuspended in ice-cold HBSS, and implanted either s.c. (H1975, 3×10^6 cells per mouse) or i.d. (A431, 1×10^6 cells per mouse) into the dorsal hind flank or s.c. into the mammary fat pad (MDA-MB-231, 1×10^6 cells per mouse). Palpable tumors were measured by caliper twice weekly until the mean tumor weight was in the range of ˜80 to 120 mg. Tumor weight was determined by measuring perpendicular diameters with a caliper and multiplying the measurements of diameters in two dimensions: tumor volume (mm^3)/2=length (mm)×width (mm^2)/2. […] The mean tumor weight of each animal in the respective control and treatment groups was determined twice weekly during the dosing periods. […]
as §1

p-Y-HER2/ErbB2 = target: T8, p-Y-HER2/ErbB2 (Homo sapiens, UniProt P04626); test: In vivo receptor phosphorylation, BT474 xenografts; design: species or system mouse; conditions: Phospho
T8 construct: endogenous in cells; host or cells: BT474 tumour xenografts in mice (per the earlier reading)

CYP3A4 = CYP3A4 (Homo sapiens, UniProt P08684); conditions: microsomes
[5] = target: EGFR Variant III (pTet-On/Lx-1) (Homo sapiens, UniProt P00533, DELINS30-297G); test: EGFR phosphorylation ELISA in transfected Lx-1 cells
Excerpt: Lx-1 cells were used because they lack background EGFR activity. A clone corresponding to the longest EGFR isoform (Genbank accession no. NM_005228.3/NP_005219.2 #21-176, Upstate Biotechnology) was used as a template to produce two mutant EGFR genes (coding for L858R and L861Q) by site-directed mutagenesis. The WT and the two sequence-verified mutants were transferred to a COOH-terminal Flag-tagged retroviral cytomegalovirus promoter-driven mammalian expression vector. The two Tet-On expression vectors, EGFR WT (Tet-On) and EGFRvIII (Tet-On), which were COOH-terminally Flag tagged, were generously provided by Dr. Abhijit Guha (University of Toronto, Toronto, Ontario, Canada).
Transient transfections of Lx-1 cells were done using Lipofectamine 2000 (Invitrogen) according to the manufacturer's protocol. For transfections of the WT, L858R, and L861Q constructs, 1 μg plasmid DNA was used for each transfection (each well of a 12-well plate). […]
For the EGFR phosphorylation ELISA, Reacti-Bind streptavidin-coated plates (Pierce) were coated with 2 μg/mL biotin-conjugated anti-Flag antibody (Sigma). […] Horseradish peroxidase activity was determined by reading the plates in a Victor2 plate reader following addition of the ELISA Femto substrate.

T1 sequence (P00533 672-1210): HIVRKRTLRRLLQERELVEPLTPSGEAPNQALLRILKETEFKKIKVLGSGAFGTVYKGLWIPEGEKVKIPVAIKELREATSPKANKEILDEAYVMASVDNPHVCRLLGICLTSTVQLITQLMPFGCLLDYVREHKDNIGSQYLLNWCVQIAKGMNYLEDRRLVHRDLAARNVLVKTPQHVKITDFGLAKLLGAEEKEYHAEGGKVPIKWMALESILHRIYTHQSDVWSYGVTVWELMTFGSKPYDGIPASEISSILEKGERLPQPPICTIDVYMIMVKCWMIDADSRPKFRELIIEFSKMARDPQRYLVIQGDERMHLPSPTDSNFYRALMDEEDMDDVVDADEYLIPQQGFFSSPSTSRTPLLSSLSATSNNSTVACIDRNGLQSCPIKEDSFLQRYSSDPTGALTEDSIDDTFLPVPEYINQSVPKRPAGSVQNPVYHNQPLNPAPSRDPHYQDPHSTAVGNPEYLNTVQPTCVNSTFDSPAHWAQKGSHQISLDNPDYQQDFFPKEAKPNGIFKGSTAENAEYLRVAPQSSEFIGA
T8 sequence (P04626 23-1255): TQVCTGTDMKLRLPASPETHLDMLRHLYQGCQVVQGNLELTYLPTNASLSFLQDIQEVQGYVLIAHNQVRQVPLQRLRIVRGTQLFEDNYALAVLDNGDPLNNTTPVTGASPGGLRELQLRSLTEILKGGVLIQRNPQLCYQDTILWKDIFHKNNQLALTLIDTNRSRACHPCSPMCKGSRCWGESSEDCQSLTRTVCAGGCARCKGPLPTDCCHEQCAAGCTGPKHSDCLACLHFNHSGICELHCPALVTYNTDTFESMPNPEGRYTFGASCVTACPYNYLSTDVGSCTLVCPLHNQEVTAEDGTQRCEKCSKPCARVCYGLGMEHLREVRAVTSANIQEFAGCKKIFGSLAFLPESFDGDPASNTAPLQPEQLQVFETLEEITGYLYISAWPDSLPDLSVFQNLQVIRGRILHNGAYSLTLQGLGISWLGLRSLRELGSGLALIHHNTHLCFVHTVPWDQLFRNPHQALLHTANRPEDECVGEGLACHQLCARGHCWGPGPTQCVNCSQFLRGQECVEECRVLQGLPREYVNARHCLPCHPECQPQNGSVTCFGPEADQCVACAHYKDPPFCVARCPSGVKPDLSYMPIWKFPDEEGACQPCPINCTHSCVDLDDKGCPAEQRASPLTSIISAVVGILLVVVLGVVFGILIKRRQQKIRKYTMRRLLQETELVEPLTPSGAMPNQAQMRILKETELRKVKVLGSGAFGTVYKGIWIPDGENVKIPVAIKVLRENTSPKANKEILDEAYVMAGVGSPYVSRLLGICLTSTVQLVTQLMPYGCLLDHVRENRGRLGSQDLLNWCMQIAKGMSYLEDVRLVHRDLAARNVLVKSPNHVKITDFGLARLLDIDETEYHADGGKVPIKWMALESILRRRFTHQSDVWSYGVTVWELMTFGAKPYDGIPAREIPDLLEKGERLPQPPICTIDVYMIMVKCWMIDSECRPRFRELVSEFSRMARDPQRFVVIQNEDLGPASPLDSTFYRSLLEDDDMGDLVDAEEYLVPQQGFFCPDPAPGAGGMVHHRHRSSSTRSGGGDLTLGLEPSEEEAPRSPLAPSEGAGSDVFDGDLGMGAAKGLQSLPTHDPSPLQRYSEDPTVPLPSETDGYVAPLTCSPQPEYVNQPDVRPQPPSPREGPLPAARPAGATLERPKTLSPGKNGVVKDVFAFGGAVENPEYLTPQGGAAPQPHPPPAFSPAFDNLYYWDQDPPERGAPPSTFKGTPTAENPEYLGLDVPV
T5 sequence (Q15722 whole entry): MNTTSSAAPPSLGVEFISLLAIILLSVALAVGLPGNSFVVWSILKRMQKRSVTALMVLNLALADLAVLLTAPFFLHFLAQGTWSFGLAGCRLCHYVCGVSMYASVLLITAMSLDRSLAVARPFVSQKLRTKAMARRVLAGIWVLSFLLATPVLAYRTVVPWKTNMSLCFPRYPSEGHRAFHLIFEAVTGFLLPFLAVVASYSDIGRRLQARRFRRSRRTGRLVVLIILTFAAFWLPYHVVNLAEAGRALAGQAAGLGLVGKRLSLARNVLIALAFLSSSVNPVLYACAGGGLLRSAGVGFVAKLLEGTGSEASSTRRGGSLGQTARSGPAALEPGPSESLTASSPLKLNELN
T7 sequence (P25103 whole entry): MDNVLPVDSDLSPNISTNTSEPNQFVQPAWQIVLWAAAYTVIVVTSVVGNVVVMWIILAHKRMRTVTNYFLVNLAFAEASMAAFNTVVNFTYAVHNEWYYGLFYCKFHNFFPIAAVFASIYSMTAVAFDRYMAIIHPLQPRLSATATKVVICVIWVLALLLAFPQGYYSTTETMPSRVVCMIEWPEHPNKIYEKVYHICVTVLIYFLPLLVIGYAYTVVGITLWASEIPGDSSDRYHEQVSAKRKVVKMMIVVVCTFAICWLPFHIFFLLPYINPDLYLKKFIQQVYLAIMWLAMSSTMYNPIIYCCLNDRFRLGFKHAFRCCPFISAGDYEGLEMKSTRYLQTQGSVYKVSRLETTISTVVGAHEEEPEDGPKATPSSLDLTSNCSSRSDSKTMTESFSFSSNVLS
wt EGFR (A431), sequence (P00533 25-1210): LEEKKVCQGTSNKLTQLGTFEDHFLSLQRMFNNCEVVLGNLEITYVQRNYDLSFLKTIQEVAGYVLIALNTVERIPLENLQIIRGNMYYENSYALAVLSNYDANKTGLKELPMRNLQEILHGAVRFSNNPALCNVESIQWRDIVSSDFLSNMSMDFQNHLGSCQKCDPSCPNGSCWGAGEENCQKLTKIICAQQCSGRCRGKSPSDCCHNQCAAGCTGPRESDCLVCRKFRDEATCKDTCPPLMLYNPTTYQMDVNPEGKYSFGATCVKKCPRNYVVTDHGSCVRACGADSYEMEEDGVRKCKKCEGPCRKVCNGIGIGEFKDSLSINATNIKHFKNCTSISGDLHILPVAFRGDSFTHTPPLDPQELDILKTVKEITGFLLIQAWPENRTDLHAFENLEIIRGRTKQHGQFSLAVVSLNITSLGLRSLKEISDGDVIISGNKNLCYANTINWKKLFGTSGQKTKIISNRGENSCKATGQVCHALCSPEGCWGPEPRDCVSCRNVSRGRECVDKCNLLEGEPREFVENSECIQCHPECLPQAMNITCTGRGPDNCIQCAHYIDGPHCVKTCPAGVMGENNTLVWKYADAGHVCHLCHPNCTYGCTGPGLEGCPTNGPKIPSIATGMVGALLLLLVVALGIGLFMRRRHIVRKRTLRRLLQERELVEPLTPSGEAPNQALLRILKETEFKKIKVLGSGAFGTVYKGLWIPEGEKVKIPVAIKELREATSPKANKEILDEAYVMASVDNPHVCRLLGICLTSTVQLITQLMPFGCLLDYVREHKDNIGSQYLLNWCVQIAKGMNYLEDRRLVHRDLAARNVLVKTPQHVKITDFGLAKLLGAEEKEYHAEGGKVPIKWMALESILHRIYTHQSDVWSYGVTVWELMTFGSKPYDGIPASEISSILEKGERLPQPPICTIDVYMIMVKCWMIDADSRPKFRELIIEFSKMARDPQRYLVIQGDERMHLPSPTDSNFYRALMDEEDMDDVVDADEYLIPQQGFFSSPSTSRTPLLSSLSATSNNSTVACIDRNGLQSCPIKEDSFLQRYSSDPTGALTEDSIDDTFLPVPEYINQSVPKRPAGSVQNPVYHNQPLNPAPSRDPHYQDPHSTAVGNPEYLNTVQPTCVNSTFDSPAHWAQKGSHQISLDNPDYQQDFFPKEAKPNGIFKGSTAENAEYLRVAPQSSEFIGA
CYP3A4, sequence (P08684 whole entry): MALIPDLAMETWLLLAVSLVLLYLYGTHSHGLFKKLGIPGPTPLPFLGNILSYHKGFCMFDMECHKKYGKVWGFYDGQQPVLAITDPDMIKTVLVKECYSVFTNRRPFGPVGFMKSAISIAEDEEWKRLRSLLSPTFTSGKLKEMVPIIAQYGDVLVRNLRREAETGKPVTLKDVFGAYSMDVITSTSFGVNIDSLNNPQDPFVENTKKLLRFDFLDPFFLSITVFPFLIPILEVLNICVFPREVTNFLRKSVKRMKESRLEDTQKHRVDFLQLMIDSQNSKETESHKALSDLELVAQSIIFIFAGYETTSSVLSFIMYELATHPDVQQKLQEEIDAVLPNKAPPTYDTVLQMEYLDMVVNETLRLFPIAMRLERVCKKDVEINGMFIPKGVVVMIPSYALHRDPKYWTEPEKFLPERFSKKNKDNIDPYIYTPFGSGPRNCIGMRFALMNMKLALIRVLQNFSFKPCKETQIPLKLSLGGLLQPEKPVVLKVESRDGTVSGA
T3 sequence (Q9Y5N1 whole entry): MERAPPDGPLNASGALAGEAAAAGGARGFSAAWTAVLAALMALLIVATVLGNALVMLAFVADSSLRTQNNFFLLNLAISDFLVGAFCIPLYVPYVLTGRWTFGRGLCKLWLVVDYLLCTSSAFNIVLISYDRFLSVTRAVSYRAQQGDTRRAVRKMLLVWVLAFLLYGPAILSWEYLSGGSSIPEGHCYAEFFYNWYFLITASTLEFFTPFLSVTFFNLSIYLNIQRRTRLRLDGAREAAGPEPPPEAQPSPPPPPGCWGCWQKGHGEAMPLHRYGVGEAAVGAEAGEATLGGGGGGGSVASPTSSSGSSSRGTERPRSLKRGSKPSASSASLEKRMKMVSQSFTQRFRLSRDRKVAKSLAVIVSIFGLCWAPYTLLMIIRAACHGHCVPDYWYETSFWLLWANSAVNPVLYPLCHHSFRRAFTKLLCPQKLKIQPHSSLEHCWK

## COc1cc2c(Nc3ccc(Cl)c(Cl)c3F)ncnc2cc1OC[C@@H]1C[C@@H]2CN(C)C[C@@H]2C1 [XL-647, N-(3,4-dichloro-2-fluorophenyl)-7-({[(3aR,5r,6aS)-2-methyloctahydrocyclopenta[c]pyrrol-5-yl]methyl}oxy)-6-(methyloxy)quinazolin-4-amine]
EGFR
  ATP-Competitive: Yes
  pKi: 10.30
  Reversible: Yes
Adenosine, Non-selective
  Inhibition, 10 μM XL-647: 47.89%
Dopamine, Non-selective
  Inhibition, 10 μM XL-647: 34.88%
[1]
  Inhibition, 10 μM XL-647: −1.66%
[2]
  inhibition at 10 µM: 6.46%
Histamine, H3
  inhibition at 10 µM: 38.6%
Melatonin, Non-selective
  Inhibition, 10 μM XL-647: 0.18%
Calcium Channel, Type N
  inhibition at 10 µM: 16.8%
Leukotriene B4, LTB4
  inhibition at 10 µM: 32.2%
Bradykinin, BK2
  inhibition at 10 µM: 48.8%
Neurokinin, NK1
  inhibition at 10 µM: 20.4%
Wt EGFR (A431)
  pIC50: 9.00
[3]; 10 mg/kg/day oral, 14 days
  tumor growth inhibition: 65%
[3]; 100 mg/kg/day oral, 14 days, starting weight 109±20 mg
  final tumor weight (marked regression): 36 ± 15 mg
[3]; 10, 30, and 100 mg/kg/day oral, 14 days
  tumor growth, in words: significantly inhibited tumor growth in a dose dependent manner
[3]; A-431, qd × 14
  ED50: 5.9 mg/kg
[3]; A-431, qd × 28
  ED50: 3.8 mg/kg
[4]; MDA-MB-231, qd × 14
  ED50: 21.9 mg/kg
[4]; MDA-MB-231, qd × 28
  ED50: 22.9 mg/kg
p-Y-HER2/ErbB2
  Single Dose Duration of Action (100 mg/kg, >50% inhibition): >72 h
p-Y-HER2/ErbB2; in vivo, read-out: Estimated IC50 (plasma concentration)
  pIC50: 5.44
CYP3A4
  CYP3A4 substrate, in words: substrate for CYP3A4-mediated metabolism
[5]
  pIC50: 7.13

Source: patent US9364479B2, “Use of a receptor-type kinase modulator for treating polycystic kidney disease” (SYMPHONY EVOLUTION, INC., priority 2010, dated 2016)
